Test results from US20240391882A1 (Mirati Therapeutics, Inc., priority 2023, published 2024).
Where two headings read alike, the source gives them in different places.

Experiments:
Format in all cases: cell-based
[1] = tested on: pAKT in T47D (PI3Kα H1047R mutant) cells; experiment: Inhibition of pAKT (alphaLISA Surefire Ultra AKT 1/2/3 pS473) in T47D cells; conditions: Homo sapiens, read-out: T47D (H1047R) pAKT 24 hr (IC50)
How it was run: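 Cells in HBSS were dosed from 10.4 μm (1:4 serial dilution, 10 concentrations) and incubated about 24 hours at 37° C, then lysed. pAKT S473 measured by alphaLISA after overnight bead incubation. Signal normalised to alpelisib (3.125 μm) and DMSO controls; IC50 from four-parameter fit.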

[2] = tested on: SKBR3 (PI3Kα wild type) cells; experiment: Cell viability (CellTiter-Glo 2.0) in SKBR3 cells; conditions: Homo sapiens
Method: This Example illustrates that representative compounds of the invention decrease the viability of cells.
The ability of a compound of Formula (I) to decrease the viability of cells was measured using CellTiter-Glo 2.0 (CTG) Luminescent Cell Viability Assay (#G9241) obtained from Promega (Madison, WI).
To prepare assay plates for viability assays, cells were trypsinized, resuspended in fresh media, and viable cells were counted utilizing trypan blue exclusion. T47D, SKBR3, or MKN1 cells were seeded at 1000 cells in 30 μl per well in a solid white flat bottom 384 cell culture plate (Perkin Elmer #6007680) and incubated at 37° C. overnight.
Assay day 1, cells were dosed using an Echo Liquid Handler (Beckman Coulter) with compounds at a 10 μm starting concentration and serially diluted (1:4) for a total of 10 concentrations. Cells were incubated for approximately 72 hours with the compounds (solubilized in DMSO) at 37° C. After 72 hours of treatment, cell plates were equilibrated to room temperature before adding 15 μl of CTG to each well, plates were then covered in aluminum foil to protect from light, incubated at room temperature for 30 minutes on a microtiter plate shaker, and luminescence readings were collected using a CLARIOstar microplate reader (BMG Labtech, Germany). Percent of vehicle control values were plotted as log(inhibitor) vs. response—Variable slope (four parameters) for curve fitting and IC50 values were determined using XLfit.

[3] = tested on: T47D (PI3Kα H1047R mutant) cells; experiment: Cell viability (CellTiter-Glo 2.0) in T47D cells; conditions: Homo sapiens, approximately 72 hours
How it was run: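 SKBR3 or T47D cells, 1000 per well, were seeded overnight and then exposed ~72 h at 37° C to 10 concentrations of compound, 1:4 dilutions from 10 μm. Viability read by CellTiter-Glo luminescence as percent of vehicle; IC50 from four-parameter variable-slope fit.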

[4] = T47D (PI3Kα H1047R mutant) cells, 24 hr compound incubation, alphaLISA pS473
[5] = SK-BR-3, SKBR3 (PI3Kα wild type) cells, approximately 72 hours, CellTiter-Glo 2.0, read-out: SKBR3 (WT) Viability IC50

Row | IC50 [1, 4] | IC50 [2, 5] | IC50 ([3]; T47D, 72 h) | Structure (SMILES) | IC50 ([1]; T47D, 24 h) | IC50 ([2]; SK-BR-3, 72 h, read-out: SKBR3 (WT) Viability IC50 (nM)) | IC50 [3]
1 | 2.6 nM | 9650 nM | 31 nM | Cc1cc([C@@H](C)Nc2ccc(Cl)nc2C(=O)O)c2nc(N3CCC(F)(F)C3)c(C#N)nc2c1 [Example 70, (R)-6-chloro-3-((1-(2-cyano-3-(3,3-difluoropyrrolidin-1-yl)-7-methylquinoxalin-5-yl)ethyl)amino)picolinic acid] |  |  | 
2 | 2 nM | > 10000 nM | 157 nM | Cc1cc([C@@H](C)Nc2ccc(Cl)nc2C(=O)O)c2nc(C3CC3)c(C#N)nc2c1 [Example 44, (R)-6-chloro-3-((1-(2-cyano-3-cyclopropyl-7-methylquinoxalin-5-yl)ethyl)amino)picolinic acid] |  |  | 
3 | 0.27 nM | 7810 nM | 10.5 nM | Cc1cc([C@@H](C)Nc2ccc(Cl)nc2C(=O)O)c2nc(N3CCN(c4cc(C)on4)CC3)c(C#N)nc2c1 [Example 201, (R)-6-chloro-3-((1-(2-cyano-7-methyl-3-(4-(5-methylisoxazol-3-yl)piperazin-1-yl)quinoxalin-5-yl)ethyl)amino)picolinic acid] |  |  | 
4 | 1.7 nM | 7680 nM | 90 nM | Cc1cc([C@@H](C)Nc2ccc(Cl)nc2C(=O)O)c2nc(N3C[C@H]4CSC[C@H]4C3)c(C#N)nc2c1 [Example 848, 6-chloro-3-(((R)-1-(2-cyano-7-methyl-3-cis-tetrahydro-1h-thieno[3,4-c]pyrrol-5(3H)-ylquinoxalin-5-yl)ethyl)amino)picolinic acid] |  |  | 
5 | 52 nM | > 10000 nM | 701 nM | Cc1cc([C@@H](C)Nc2ccccc2C(=O)O)c2nc(NC[C@]3(C)CC3(F)F)c(C#N)nc2c1 (single isomer, unassigned) [Example 75A] |  |  | 
6 | 2 nM | > 10000 nM | 183 nM | Cc1cc([C@@H](C)Nc2ccc(Cl)nc2C(=O)O)c2nc(N3CCO[C@H](CO)C3)c(C#N)nc2c1 [Example 235A, 6-chloro-3-(((R)-1-(2-cyano-3-((S)-2-(hydroxymethyl)morpholino)-7-methylquinoxalin-5-yl)ethyl)amino)picolinic acid] |  |  | 
7 |  |  |  | Cc1cc([C@@H](C)Nc2ccc(Cl)nc2C(=O)O)c2nc(N3CCC(F)(F)CC3)c(C#N)nc2c1 [Example 5, (R)-6-chloro-3-((1-(2-cyano-3-(4,4-difluoropiperidin-1-yl)-7-methylquinoxalin-5-yl)ethyl)amino)picolinic acid] | 0.8 nM | 3970 nM | 37.3 nM
8 | 39 nM | > 10000 nM | 720 nM | Cc1cc([C@@H](C)Nc2ccccc2C(=O)O)c2nc(NC[C@@]3(C)CC3(F)F)c(C#N)nc2c1 (single isomer, unassigned) [Example 75B] |  |  | 
9 | 7.5 nM | 3400 nM | 65.1 nM | Cc1cc([C@@H](C)Nc2ccc(Cl)nc2C(=O)O)c2nc(N3C[C@H]4C[C@@H]3CC4(F)F)c(C#N)nc2c1 (single isomer, unassigned) [Example 9] |  |  | 
10 | 3.2 nM | > 10000 nM | 79 nM | Cc1cc([C@@H](C)Nc2ccc(Cl)nc2C(=O)O)c2nc(N3CCC[C@H]([C@H](C)O)C3)c(C#N)nc2c1 [Example 261A, 6-chloro-3-(((R)-1-(2-cyano-3-((S)-3-((S)-1-hydroxyethyl)piperidin-1-yl)-7-methylquinoxalin-5-yl)ethyl)amino)picolinic acid] |  |  | 
11 | 4.5 nM | 5030 nM | 121 nM | Cc1cc([C@@H](C)Nc2ccc(Cl)nc2C(=O)O)c2nc(N3CCC4(CC3)C(F)(F)C4(F)F)c(C#N)nc2c1 [Example 82, (R)-6-chloro-3-((1-(2-cyano-7-methyl-3-(1,1,2,2-tetrafluoro-6-azaspiro[2.5]octan-6-yl)quinoxalin-5-yl)ethyl)amino)picolinic acid] |  |  | 
12 | 6.1 nM | 3800 nM | 152 nM | Cc1cc([C@@H](C)Nc2ccc(Cl)nc2C(=O)O)c2nc(N3C[C@H](C)OC[C@@H]3C)c(C#N)nc2c1 [Example 237B, 6-chloro-3-(((R)-1-(2-cyano-3-((2S,5S)-2,5-dimethylmorpholino)-7-methylquinoxalin-5-yl)ethyl)amino)picolinic acid] |  |  | 
13 | 844 nM | > 10000 nM | 9330 nM | Cc1cc([C@H](C)Nc2ccccc2C(=O)O)c2nc(N3CCC(F)(F)CC3)c(C#N)nc2c1 [Example 4, (S)-2-((1-(2-cyano-3-(4,4-difluoropiperidin-1-yl)-7-methylquinoxalin-5-yl)ethyl)amino)benzoate] |  |  | 
14 | 0.91 nM | 9550 nM | 61 nM | COC[C@H]1[C@H]2CN(c3nc4c([C@@H](C)Nc5ccc(Cl)nc5C(=O)O)cc(C)cc4nc3C#N)C[C@@H]12 [Example 213, 6-chloro-3-(((R)-1-(2-cyano-3-((1R,5S,6S)-6-(methoxymethyl)-3-azabicyclo[3.1.0]hexan-3-yl)-7-methylquinoxalin-5-yl)ethyl)amino)picolinic acid] |  |  | 
15 | 3.6 nM | > 10000 nM | 217 nM | COC[C@H]1CN(c2nc3c([C@@H](C)Nc4ccc(Cl)nc4C(=O)O)cc(C)cc3nc2C#N)CCO1 [Example 236B, 6-chloro-3-(((R)-1-(2-cyano-3-((R)-2-(methoxymethyl)morpholino)-7-methylquinoxalin-5-yl)ethyl)amino)picolinic acid] |  |  | 
16 | 0.8 nM | > 10000 nM | 121 nM | Cc1cc([C@@H](C)Nc2ccc(Cl)nc2C(=O)O)c2nc(N3C[C@@H](CO)C(F)(F)C3)c(C#N)nc2c1 (single isomer, unassigned) [Example 210B] |  |  | 
17 | 0.47 nM | > 10000 nM | 84.1 nM | CO[C@H](C)C1CCN(c2nc3c([C@@H](C)Nc4ccc(Cl)nc4C(=O)O)cc(C)cc3nc2C#N)CC1 (single isomer, unassigned) [Example 195A] |  |  | 
18 | 48.3 nM | > 10000 nM | 2140 nM | C[C@@H](Nc1ccccc1C(=O)O)c1cc(C#N)cc2nc(C#N)c(N3CCC(F)(F)CC3)nc12 [Example 28, (R)-2-((1-(2,7-dicyano-3-(4,4-difluoropiperidin-1-yl)quinoxalin-5-yl)ethyl)amino)benzoic acid] |  |  | 
19 | 1.2 nM | 4920 nM | 18.6 nM | Cc1cc([C@@H](C)Nc2ccc(Cl)nc2C(=O)O)c2nc(N3C[C@@H]4COC[C@H]4C3)c(C#N)nc2c1 (single isomer, unassigned) [Example 229B] |  |  | 
20 | 4.4 nM | > 10000 nM | 271 nM | Cc1cc([C@@H](C)Nc2ccc(Cl)nc2C(=O)O)c2nc(N3CCO[C@H](C(F)(F)F)C3)c(C#N)nc2c1 [Example 190A, 6-chloro-3-(((R)-1-(2-cyano-7-methyl-3-((S)-2-(trifluoromethyl)morpholino)quinoxalin-5-yl)ethyl)amino)picolinic acid] |  |  | 
21 | 1.1 nM | > 10000 nM | 11 nM | Cc1cc([C@@H](C)Nc2ccc(Cl)nc2C(=O)O)c2nc(N3CC4(CCOC4)C3)c(C#N)nc2c1 [Example 251, (R)-6-chloro-3-((1-(2-cyano-7-methyl-3-(6-oxa-2-azaspiro[3.4]octan-2-yl)quinoxalin-5-yl)ethyl)amino)picolinic acid] |  |  | 
22 | 5.8 nM | 5140 nM | 113 nM | Cc1cc([C@@H](C)Nc2ccc(Cl)nc2C(=O)O)c2nc(N3CC[C@]4(CCCO4)C3)c(C#N)nc2c1 (single isomer, unassigned) [Example 253B] |  |  | 
23 | 0.37 nM | > 10000 nM | 100 nM | CO[C@@H](C)C1CCN(c2nc3c([C@@H](C)Nc4ccc(Cl)nc4C(=O)O)cc(C)cc3nc2C#N)CC1 (single isomer, unassigned) [Example 195B] |  |  | 
24 | 0.69 nM | > 10000 nM | 135 nM | Cc1cc([C@@H](C)Nc2ccc(Cl)nc2C(=O)O)c2nc(N3C[C@H](CO)C(F)(F)C3)c(C#N)nc2c1 (single isomer, unassigned) [Example 210A] |  |  | 
25 | 2.8 nM | > 10000 nM | 73 nM | Cc1cc([C@@H](C)Nc2ccc(Cl)nc2C(=O)O)c2nc(N3CCC(F)(F)[C@@H](CO)C3)c(C#N)nc2c1 (single isomer, unassigned) [Example 234A] |  |  | 
